Laboratory results taken from US9149441B2 (priority 2008, dated 2015).

Tests used:
[1] = test system: red blood cells (RBCs); experiment: Potassium release from red blood cells (membrane toxicity); assay type: cell-based; settings: all experimental concentrations; solution effect rising up to 0.08 mg/ml
Text: Potassium is found in high concentrations inside the red blood cells (RBCs). Any damage to membrane will result in leaking out of potassium from the RBCs.

[2] = test system: S. Aureus; experiment: Vancomycin formulations in S. Aureus septic shock rat model; assay type: in vivo; settings: for Survival: simultaneous treatment group, peritonitis rat model (Table 8), 15 mg/kg twice/day for 3 days
Experimental: The efficacy of vancomycin nanospheres as compared to the solution formulation was determined in a septic shock rat model.
Three scenarios were evaluated:
Group 1. Determination of the efficacy of the encapsulated and solution formulation of vancomycin. [Pre-treatment Group].
(§1) The nanospheres and solution vancomycin formulations (15 mg/kg twice/day for 3 days) or blank nanospheres (control) were injected to different groups of animals 4 hrs prior to the animals being injected with S. Aureus (i.p.; 1.0×10^8 cfu/mL). Blood samples (0.5 mL) were obtained to determine the bacterial count at 0, 4, 24, 48, 96 and 120 hrs.
Group 2. Determination of the efficacy of the encapsulated and solution formulations of vancomycin. [Simultaneous treatment Group]
(§2) In this set of experiments, S. Aureus bacteria (1.0×10^8 cfu/mL) were administered i.p. and simultaneously the NS and solution gentamicin formulations (15 mg/kg twice/day for 3 days) or blank nanospheres (control) were injected subcutaneously to different groups of rats. Blood samples (0.5 mL) were obtained to determine the bacterial count at 0, 4, 24, 48, 96 and 120 hrs.
Group 3. Determination of the efficacy of the nanosphere and solution formulation of vancomycin. [Delayed treatment Group].
as §2, with “i.p. to different groups of rats” for “i.p.”, “4 hrs following infection” for “simultaneously”, “injected.” for “injected subcutaneously to different groups of rats.”

[3] = test system: E. Coli; experiment: Gentamicin formulations in E. Coli septic shock (peritonitis) rat model; assay type: in vivo; settings: for % inhibition of the bacterial growth in the blood / Bact. count (cfu/mL): 120 hrs; for Bact. count (cfu/mL): blood; for Survival: peritonitis rat model (Table 5)
Experimental: Gentamicin in the solution and the nanosphere form were tested on rats in order to evaluate the E. Coli distribution in the body, also the two formulations were evaluated in septic shock rat models.
Group 1. Determination of the efficacy of the encapsulated and solution formulation of gentamicin. [Pre-treatment Group].
as §1, with “gentamicin” for “vancomycin”, “E. Coli” for “S. Aureus”, “1.1×10^9” for “1.0×10^8”, “samples” for “samples (0.5 mL)”
Group 2. Determination of the efficacy of the encapsulated and solution formulations of gentamicin. [Simultaneous treatment Group]
as §2, with “E. Coli” for “S. Aureus”, “(1.1×10^9” for “(1.0×10^8”, “samples” for “samples (0.5 mL)”
Group 3. Determination of the efficacy of the nanosphere and solution formulation of gentamicin. [Delayed treatment Group].
In this set of experiments, E. Coli bacteria (1.1×10^9 cfu/mL) were administered i.p. to different groups of rats and 4 hrs following infection the NS and solution gentamicin formulations (15 mg/kg twice/day for 3 days) or blank nanospheres (control) were injected. Blood samples were obtained to determine the bacterial count at 0, 4, 24, 48, 96 and 120 hrs.

| Compound | Potassium release from RBCs [1] | Survival [2] [%] | Bacterial count in the blood vs blank BSA nanospheres ([2]; text Group 1, FIG. 14 (prophylactic treatment)) | Bacterial count in the blood vs blank BSA nanospheres ([2]; text Group 2, FIG. 15 (simultaneous treatment)) | % inhibition of the bacterial growth in the blood ([3]; delayed treatment group (Table 7), listed as Solution) [%] | % inhibition of the bacterial growth in the blood ([3]; delayed treatment group (Table 7), listed as gentamicin solution) | % inhibition of the bacterial growth in the blood ([3]; prophylactic treatment group (Table 6)) | % inhibition of the bacterial growth in the blood ([3]; simultaneous treatment group (Table 4)) [%] | % inhibition of the bacterial growth in the blood ([3]; simultaneous treatment group (Table 4), listed as gentamicin solution) | Bact. count (cfu/mL) ([3]; delayed treatment group) | Bact. count (cfu/mL) ([3]; simultaneous treatment group, 15 mg/kg twice/day for 3 days) | Survival ([3]; simultaneous treatment group) [%] | Survival ([3]; simultaneous treatment group, listed as gentamicin solution) [%] | Bacterial count in the blood vs blank BSA nanospheres ([2]; text Group 3, FIG. 16 (delayed treatment)) |
| --- | --- | --- | --- | --- | --- | --- | --- | --- | --- | --- | --- | --- | --- | --- |
| C[C@@H]1[C@H](O)[C@@H](C)/C=C/C=C/C=C/C=C/C=C/C=C/C=C/[C@H](O[C@@H]2O[C@H](C)[C@@H](O)[C@H](N)[C@@H]2O)C[C@@H]2O[C@](O)(C[C@@H](O)C[C@@H](O)[C@H](O)CC[C@@H](O)C[C@@H](O)CC(=O)O[C@H]1C)C[C@H](O)[C@H]2C(=O)O [solution formulation of Amphotericin B, Amphotericin B] | significant release of potassium from the RBCs |  |  |  |  |  |  |  |  |  |  |  |  |  |
| CN[C@H](CC(C)C)C(=O)N[C@H]1C(=O)N[C@@H](CC(N)=O)C(=O)N[C@H]2C(=O)N[C@H]3C(=O)N[C@H](C(=O)N[C@H](C(=O)O)c4cc(O)cc(O)c4-c4cc3ccc4O)[C@H](O)c3ccc(c(Cl)c3)Oc3cc2cc(c3O[C@@H]2O[C@H](CO)[C@@H](O)[C@H](O)[C@H]2O[C@H]2C[C@](C)(N)[C@H](O)[C@H](C)O2)Oc2ccc(cc2Cl)[C@H]1O [Vancomycin Solution, vancomycin] |  | 40 | significant lower bacterial count | significant lower bacterial count |  |  |  |  |  |  |  |  |  |  |
| gentamicin [Gentamicin Solution] |  | 40 |  |  | 15 | about 15% | about 35% | 75 | about 75% | 110 | 35 | 35 | 55 | significant lower bacterial count |
